{"source": "patent US20160037780A1", "about": "“BORON CONTAINING COMPOUNDS AND USES THEREOF” (EMPIRE TECHNOLOGY DEVELOPMENT LLC, priority 2013, published 2016)", "key": {"[1]": {"assay": "14-day leaching procedure (AWPA E11-10), boron in leachate by azomethine H method", "type": "physicochemical", "details": "14-day water leaching of treated blocks", "procedure": "(§1) Six blocks from each treatment group were subjected to a 14-day leaching procedure as described AWPA Standard E11-10 from the American Wood Preservers' Association's (AWPA) “Standard method of determining the leachability of wood preservatives” in the AWPA Book of Standards, Birmingham, Ala., 2010. The blocks were immersed in an excess of water, and subjected to a short vacuum. The water was then changed after 6, 24, and 48 hours of immersion and at 48 hour intervals over a total of 14 days. An aliquot of the leachate was retained at each time point for later analysis. The leached blocks were then reconditioned to constant weight at 23° C. and 65% relative humidity. Leachate collected at each time point was analyzed for boron using the azomethine H method as described in AWPA Standard A2-10 Method 16. All of the blocks were briefly soaked with water prior to being placed in plastic bags and sterilized by exposure to 2.5 mrad of ionizing radiation from a cobalt 60 source."}, "[2]": {"tested_on": "Gloeophyllum trabeum", "assay": "Soil block test (AWPA E10-10), decay resistance of treated wood blocks", "type": "cell-based", "details": "12 weeks at 28° C., mean of 6 blocks (SD)", "procedure": "Soil Block Test. The soil block test (AWPA, 2010) is a relatively rapid laboratory method for assessing the decay resistance of wood-based materials under conditions that favor rapid fungal attack of wood. Soil block tests were conducted upon blocks treated with compounds and compositions described herein. Leachates from the blocks were collected prior to fungal exposure and analyzed.\nPonderosa pine (Pinus ponderosa L) sapwood blocks (19 mm cubes) were oven dried (60° C.) and weighed. The blocks were then randomly allocated, in groups of 12, to the various treatment groups. Treatment solutions containing actives (e.g., the compounds and compositions described herein) were supplied as 10% active ingredient concentrates. These solutions were then diluted with toluene to produce treatment solutions containing 0.1, 0.5, 1.0 and 3.0% active ingredient solutions. The blocks from a given group were placed in a container and covered with an excess of a given treatment solution. This container was placed in a desiccator. A vacuum was drawn over the vessel and then released. The blocks were removed from the treatment solution and blotted to remove excess solution before being weighed. The difference between the original dry weight and the wet weight was used to calculated net solution uptake. The blocks were stored wet for 3 days at 20-23° C. to allow any fixation reactions to proceed before being oven dried at 60° C. and weighed. The blocks were then conditioned to constant weight at 23° C. and 65% relative humidity prior to further testing.\nas §1\nDecay chambers were prepared by half filling 454 ml French squares with moisture forest loam and placing a western hemlock feeder strip on the soil surface as described in AWPA Standard E10-10 “Standard method of testing wood preservatives by laboratory soil-block cultures.” The bottles were then loosely capped and autoclaved for 45 minutes at 121° C.\nAfter cooling, the bottles were inoculated with 2 to 3 mm diameter malt agar disks cut from the actively growing edges of cultures of the test fungus, Gloeophyllum trabeum (Pers. ex Fr.) Murr. (Isolate: Madison 617). This fungus causes a brown rot of wood and tends to have some tolerance to boron compounds. The agar plugs were placed on the edges of the wood feeder strips, and the jars were loosely capped (to allow air exchange), and incubated until the feeder strip was thoroughly covered with fungal mycelium. The sterile test blocks were then placed on the surfaces of the feeder strips, the bottles were loosely capped and incubated at 28° C. for 12 weeks.\nAt the end of the incubation period, the blocks were removed, scraped clean of adhering mycelium and weighed to determine wet weight. The blocks were then oven dried (60° C.) and weighed. Differences between initial and final oven-dry weight were used as a measure of the decay resistance of each material."}}}
{"substance": "Borate", "values": [{"measurement": "Boron concentrations in leachates (rank among formulations)", "setting": "[1]", "result": "highest"}, {"measurement": "Average Wood Weight Loss", "setting": "[2]; 0.1% B, Leaching + (first line of treatment)", "result": "50.8 (4.2) %"}, {"measurement": "Average Wood Weight Loss", "setting": "[2]; 0.1% B, second line of treatment, Leaching +", "result": "53.8 (11.5) %"}, {"measurement": "Average Wood Weight Loss", "setting": "[2]; 0.5% B, Leaching + (first line of treatment)", "result": "46.5 (3.3) %"}, {"measurement": "Average Wood Weight Loss", "setting": "[2]; 0.5% B, second line of treatment, Leaching +", "result": "46.3 (2.4) %"}, {"measurement": "Average Wood Weight Loss", "setting": "[2]; 1.0% B, Leaching + (first line of treatment)", "result": "53.6 (4.3) %"}, {"measurement": "Average Wood Weight Loss", "setting": "[2]; 1.0% B, second line of treatment, Leaching +", "result": "48.3 (8.7) %"}, {"measurement": "Average Wood Weight Loss", "setting": "[2]; 3.0% B, Leaching + (first line of treatment)", "result": "51.8 (8.3) %"}, {"measurement": "Average Wood Weight Loss", "setting": "[2]; 3.0% B, second line of treatment, Leaching printed + (probably non-leached)", "result": "27.3 (6.9) %"}]}
